Reference: PubChem BioAssay (NCI)
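Test compounds were applied to cells in 96-well plates for 48 hours at 5 doses. TGI marks complete inhibition of growth.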

Experiments:
Assay in all cases: NCI tumour cell line growth inhibition, 48 h
MDA-N = system: MDA-N
NCI/ADR-RES ovarian = system: NCI/ADR-RES ovarian
CAKI-1 renal = system: CAKI-1 renal
UACC-62 melanoma = system: UACC-62 melanoma
DU-145 prostate = system: DU-145 prostate
MDA-MB-231 breast = system: MDA-MB-231 breast
MALME-3M melanoma = system: MALME-3M melanoma
HOP-92 NSCLC = system: HOP-92 NSCLC
RPMI-8226 leukemia = system: RPMI-8226 leukemia
U251 CNS = system: U251 CNS
CCRF-CEM leukemia = system: CCRF-CEM leukemia
SK-MEL-5 melanoma = system: SK-MEL-5 melanoma
ACHN renal = system: ACHN renal
M14 melanoma = system: M14 melanoma
UO-31 renal = system: UO-31 renal
SK-MEL-2 melanoma = system: SK-MEL-2 melanoma
A498 renal = system: A498 renal
SF-539 CNS = system: SF-539 CNS
EKVX NSCLC = system: EKVX NSCLC
OVCAR-5 ovarian = system: OVCAR-5 ovarian
HCT-15 colon = system: HCT-15 colon
LOX IMVI melanoma = system: LOX IMVI melanoma
SR leukemia = system: SR leukemia
NCI-H460 lung = system: NCI-H460 lung
UACC-257 melanoma = system: UACC-257 melanoma
HL-60(TB) leukemia = system: HL-60(TB) leukemia
RXF 393 renal = system: RXF 393 renal
786-0 renal = system: 786-0 renal
COLO 205 colon = system: COLO 205 colon
OVCAR-3 ovarian = system: OVCAR-3 ovarian
OVCAR-8 ovarian = system: OVCAR-8 ovarian
HCT-116 colon = system: HCT-116 colon
MDA-MB-435 = system: MDA-MB-435
BT-549 breast = system: BT-549 breast
SK-MEL-28 melanoma = system: SK-MEL-28 melanoma
MOLT-4 leukemia = system: MOLT-4 leukemia
NCI-H522 lung = system: NCI-H522 lung
SF-268 CNS = system: SF-268 CNS
T-47D breast = system: T-47D breast
HT29 colon = system: HT29 colon
PC-3 prostate = system: PC-3 prostate
MCF7 breast = system: MCF7 breast
K-562 leukemia = system: K-562 leukemia
KM12 colon = system: KM12 colon
NCI-H23 lung = system: NCI-H23 lung
TK-10 renal = system: TK-10 renal
SK-OV-3 ovarian = system: SK-OV-3 ovarian
SNB-19 CNS = system: SNB-19 CNS
SN12C renal = system: SN12C renal
SF-295 CNS = system: SF-295 CNS
A549 NSCLC = system: A549 NSCLC
HOP-62 NSCLC = system: HOP-62 NSCLC
OVCAR-4 ovarian = system: OVCAR-4 ovarian
IGROV1 ovarian = system: IGROV1 ovarian
HS 578T breast = system: HS 578T breast
SW-620 colon = system: SW-620 colon
SNB-75 CNS = system: SNB-75 CNS
HCC-2998 colon = system: HCC-2998 colon
NCI-H226 lung = system: NCI-H226 lung

In the case of `COC(=O)c1cc(C)n(CN(Cn2nc(C(=O)OC)cc2C)c2ccccc2)n1`, the TGI (MDA-N) is reported as > 100 µM, the TGI (NCI/ADR-RES ovarian) is reported as 94.7 µM and the TGI (CAKI-1 renal) is reported as > 100 µM. The TGI (UACC-62 melanoma) was 88 µM, the TGI (DU-145 prostate) was > 100 µM and the TGI (MDA-MB-231 breast) was > 100 µM. The TGI (MALME-3M melanoma) was > 100 µM, the TGI (HOP-92 NSCLC) was > 100 µM and the TGI (RPMI-8226 leukemia) was 44.6 µM. The TGI (U251 CNS) was > 100 µM, the TGI (CCRF-CEM leukemia) was 54.2 µM and the TGI (SK-MEL-5 melanoma) was > 100 µM. For the same molecule, the TGI (ACHN renal) was 44.6 µM, the TGI (M14 melanoma) was > 100 µM and the TGI (UO-31 renal) was 55.2 µM. For the same molecule, the TGI (SK-MEL-2 melanoma) was > 100 µM, the TGI (A498 renal) was > 100 µM and the TGI (SF-539 CNS) was 36.3 µM. The TGI (EKVX NSCLC) was > 100 µM, the TGI (OVCAR-5 ovarian) was > 100 µM and the TGI (HCT-15 colon) was 47.2 µM. For the same molecule, the TGI (LOX IMVI melanoma) was 42.3 µM, the TGI (SR leukemia) was 25.5 µM and the TGI (NCI-H460 lung) was > 100 µM. The TGI (UACC-257 melanoma) was > 100 µM, the TGI (HL-60(TB) leukemia) was 47.5 µM and the TGI (RXF 393 renal) was 44.4 µM. For the same molecule, the TGI (786-0 renal) was 61 µM, the TGI (COLO 205 colon) was 32 µM and the TGI (OVCAR-3 ovarian) was > 100 µM. For the same molecule, the TGI (OVCAR-8 ovarian) was 47.9 µM, the TGI (HCT-116 colon) was 40.9 µM and the TGI (MDA-MB-435) was > 100 µM. For the same molecule, the TGI (BT-549 breast) was > 100 µM, the TGI (SK-MEL-28 melanoma) was > 100 µM and the TGI (MOLT-4 leukemia) was 33.4 µM. The TGI (NCI-H522 lung) was > 100 µM, the TGI (SF-268 CNS) was > 100 µM and the TGI (T-47D breast) was 88.3 µM. For the same molecule, the TGI (HT29 colon) was 36 µM, the TGI (PC-3 prostate) was > 100 µM and the TGI (MCF7 breast) was 93.5 µM. The TGI (K-562 leukemia) was 60.4 µM, the TGI (KM12 colon) was > 100 µM and the TGI (NCI-H23 lung) was 69.6 µM. The TGI (TK-10 renal) was > 100 µM, the TGI (SK-OV-3 ovarian) was > 100 µM and the TGI (SNB-19 CNS) was > 100 µM. For the same molecule, the TGI (SN12C renal) was > 100 µM, the TGI (SF-295 CNS) was > 100 µM and the TGI (A549 NSCLC) was > 100 µM. For the same molecule, the TGI (HOP-62 NSCLC) was > 100 µM, the TGI (OVCAR-4 ovarian) was > 100 µM and the TGI (IGROV1 ovarian) was > 100 µM. For the same molecule, the TGI (HS 578T breast) was > 100 µM and the TGI (SW-620 colon) was > 100 µM.

`COc1cc(/C=C2\C[C@H]3[C@@H]4CC=C5C[C@@H](OC(C)=O)CC[C@]5(C)[C@H]4CC[C@]3(C)\C2=N\O)cc(OC)c1OC` was tested, and the TGI (MDA-N) was > 100 µM, the TGI (NCI/ADR-RES ovarian) was > 88.9 µM and the TGI (CAKI-1 renal) was > 60.2 µM. For the same molecule, the TGI (UACC-62 melanoma) was 45.6 µM, the TGI (DU-145 prostate) was > 100 µM and the TGI (MDA-MB-231 breast) was > 100 µM. For the same molecule, the TGI (MALME-3M melanoma) was > 60.9 µM, the TGI (HOP-92 NSCLC) was 9.43 µM and the TGI (RPMI-8226 leukemia) was 3.08 µM. The TGI (U251 CNS) was > 86.3 µM, the TGI (CCRF-CEM leukemia) was > 30.6 µM and the TGI (SK-MEL-5 melanoma) was 14.7 µM. For the same molecule, the TGI (ACHN renal) was > 32.8 µM, the TGI (M14 melanoma) was > 100 µM and the TGI (UO-31 renal) was 95 µM. The TGI (SK-MEL-2 melanoma) was 76.6 µM, the TGI (SF-539 CNS) was > 92.4 µM and the TGI (EKVX NSCLC) was > 81.9 µM. For the same molecule, the TGI (SNB-75 CNS) was > 43.3 µM, the TGI (OVCAR-5 ovarian) was > 100 µM and the TGI (HCT-15 colon) was > 100 µM. For the same molecule, the TGI (LOX IMVI melanoma) was 38.4 µM, the TGI (SR leukemia) was 14.8 µM and the TGI (NCI-H460 lung) was > 100 µM. For the same molecule, the TGI (UACC-257 melanoma) was > 100 µM, the TGI (HL-60(TB) leukemia) was 15.8 µM and the TGI (RXF 393 renal) was 4.28 µM. The TGI (786-0 renal) was > 43.3 µM, the TGI (COLO 205 colon) was 17.8 µM and the TGI (OVCAR-3 ovarian) was > 100 µM. For the same molecule, the TGI (HCC-2998 colon) was > 100 µM, the TGI (OVCAR-8 ovarian) was > 100 µM and the TGI (HCT-116 colon) was > 100 µM. The TGI (MDA-MB-435) was > 91.3 µM, the TGI (BT-549 breast) was > 90.8 µM and the TGI (SK-MEL-28 melanoma) was > 72.1 µM. The TGI (MOLT-4 leukemia) was > 25.5 µM, the TGI (NCI-H522 lung) was > 49.8 µM and the TGI (SF-268 CNS) was > 100 µM. The TGI (T-47D breast) was 5.22 µM, the TGI (HT29 colon) was > 68.4 µM and the TGI (PC-3 prostate) was 18.6 µM. The TGI (NCI-H226 lung) was > 100 µM, the TGI (MCF7 breast) was > 100 µM and the TGI (K-562 leukemia) was > 100 µM. The TGI (KM12 colon) was > 100 µM, the TGI (NCI-H23 lung) was > 100 µM and the TGI (TK-10 renal) was > 100 µM. For the same molecule, the TGI (SK-OV-3 ovarian) was > 100 µM, the TGI (SNB-19 CNS) was > 100 µM and the TGI (SN12C renal) was > 100 µM. For the same molecule, the TGI (SF-295 CNS) was 13 µM, the TGI (A549 NSCLC) was > 100 µM and the TGI (HOP-62 NSCLC) was > 100 µM. The TGI (OVCAR-4 ovarian) was > 83.7 µM, the TGI (IGROV1 ovarian) was > 100 µM and the TGI (HS 578T breast) was > 100 µM. For the same molecule, the TGI (SW-620 colon) was > 100 µM.

With `CC(C)(C)OC(=O)NC(Cc1ccc(OCc2ccccc2)cn1)C(=O)N1CCCC1` (stereo not given) the TGI (MDA-N) was > 100 µM, the TGI (NCI/ADR-RES ovarian) was 91.8 µM and the TGI (CAKI-1 renal) was > 100 µM. The TGI (UACC-62 melanoma) was > 100 µM, the TGI (DU-145 prostate) was > 100 µM and the TGI (MDA-MB-231 breast) was > 100 µM. For the same molecule, the TGI (MALME-3M melanoma) was > 100 µM, the TGI (HOP-92 NSCLC) was > 100 µM and the TGI (RPMI-8226 leukemia) was > 100 µM. The TGI (U251 CNS) was > 100 µM, the TGI (CCRF-CEM leukemia) was > 100 µM and the TGI (SK-MEL-5 melanoma) was 41.9 µM. For the same molecule, the TGI (ACHN renal) was > 100 µM, the TGI (M14 melanoma) was > 100 µM and the TGI (UO-31 renal) was > 100 µM. The TGI (SK-MEL-2 melanoma) was > 100 µM, the TGI (A498 renal) was > 100 µM and the TGI (SF-539 CNS) was 67.4 µM. The TGI (EKVX NSCLC) was > 100 µM, the TGI (SNB-75 CNS) was > 100 µM and the TGI (OVCAR-5 ovarian) was > 100 µM. For the same molecule, the TGI (HCT-15 colon) was > 100 µM, the TGI (LOX IMVI melanoma) was > 100 µM and the TGI (SR leukemia) was > 100 µM. The TGI (NCI-H460 lung) was > 100 µM, the TGI (UACC-257 melanoma) was > 100 µM and the TGI (HL-60(TB) leukemia) was > 100 µM. The TGI (RXF 393 renal) was > 100 µM, the TGI (786-0 renal) was > 100 µM and the TGI (COLO 205 colon) was > 100 µM. For the same molecule, the TGI (OVCAR-3 ovarian) was > 100 µM, the TGI (HCC-2998 colon) was > 100 µM and the TGI (OVCAR-8 ovarian) was > 100 µM. For the same molecule, the TGI (HCT-116 colon) was > 100 µM, the TGI (MDA-MB-435) was > 100 µM and the TGI (BT-549 breast) was 96.7 µM. For the same molecule, the TGI (SK-MEL-28 melanoma) was > 100 µM, the TGI (MOLT-4 leukemia) was > 100 µM and the TGI (NCI-H522 lung) was > 100 µM. For the same molecule, the TGI (SF-268 CNS) was > 100 µM, the TGI (T-47D breast) was > 100 µM and the TGI (HT29 colon) was > 100 µM. The TGI (PC-3 prostate) was > 100 µM, the TGI (MCF7 breast) was > 100 µM and the TGI (K-562 leukemia) was > 100 µM. For the same molecule, the TGI (KM12 colon) was > 100 µM, the TGI (NCI-H23 lung) was > 100 µM and the TGI (TK-10 renal) was > 100 µM. For the same molecule, the TGI (SNB-19 CNS) was > 100 µM, the TGI (SN12C renal) was > 100 µM and the TGI (SF-295 CNS) was > 100 µM. The TGI (A549 NSCLC) was > 100 µM, the TGI (HOP-62 NSCLC) was > 100 µM and the TGI (IGROV1 ovarian) was > 100 µM. The TGI (HS 578T breast) was > 100 µM and the TGI (SW-620 colon) was > 100 µM.
